Results reported in BindingDB's records for doi:10.1007/s10822-022-00478-x (Roche Innovation Center Basel, F. Hoffmann-La Roche Ltd., 2022).

Target: cAMP and cAMP-inhibited cGMP 3',5'-cyclic phosphodiesterase 10A (Homo sapiens, UniProt Q9Y233)
Test: PDE10A assay
In short: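 Human PDE10A (2 ng/well) preincubated 15 min RT with compound in HEPES pH 7.5, 10 mM MgCl2, BSA, then reacted 15 min with 50 nM [3H]cGMP/cGMP substrate. Stopped with Y-Si SPA beads; bound radioactivity counted, IC50 from four-parameter logistic, pIC50 = −log10(IC50).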

## Cn1ncc(Br)c1C(=O)Nc1ccn2nc(-c3ccccc3)nc2c1 [Roche-Dataset for PDE10A, Compound 371]
  IC50: 35 nM

## Cn1ncc(C(=O)N2CC(F)C2)c1C(=O)Nc1ccn2nc(N3CCOCC3)nc2c1 [Roche-Dataset for PDE10A, Compound 372]
  IC50: 4.99 nM

## Cc1cc(Cl)c(C)n2nc(CCc3nc(N4CCCC4)n(C)n3)nc12 [Roche-Dataset for PDE10A, Compound 374]
  IC50: 0.47 nM

## Cc1ccc2nc(/C=C/c3nc(N4CCCC4)nn3C)nn2c1C [Roche-Dataset for PDE10A, Compound 375]
  IC50: 8.73 nM

## COC[C@H]1CCCN1c1n[nH]c(CCc2nc3c(C)ncc(C)n3n2)n1 [Roche-Dataset for PDE10A, Compound 376]
  IC50: 8.4 nM

## Cn1ncc(C(=O)O)c1C(=O)Nc1ccc2cc(-c3ccccc3)nn2c1 [Roche-Dataset for PDE10A, Compound 377]
  IC50: 19 nM

## COC(=O)c1cnn(C)c1C(=O)Nc1ccn2nc(-c3ccccc3)nc2c1 [Roche-Dataset for PDE10A, Compound 378]
  IC50: 15 nM

## COc1ccccc1-c1cn2c(n1)C[C@H](NC(=O)c1c(C(=O)N3CC(F)C3)cnn1C)CC2 [Roche-Dataset for PDE10A, Compound 379]
  IC50: 4.41 nM

## Cn1ncc(C(=O)O)c1C(=O)Nc1ccn2nc(-c3cccc(F)c3)nc2c1 [Roche-Dataset for PDE10A, Compound 380]
  IC50: 25 nM

## O=C(O)c1cccnc1C(=O)Nc1ccn2nc(-c3ccccc3)nc2c1 [Roche-Dataset for PDE10A, Compound 381]
  IC50: 641 nM

## Cc1nc(C)n2nc(/C=C/c3nc(N4CCCC4)nn3C)nc2c1Cl [Roche-Dataset for PDE10A, Compound 382]
  IC50: 24 nM

## O=C(NCCc1ccc(C(F)(F)F)cc1)c1nc(C2CC2)cnc1Nc1cncnc1 [Roche-Dataset for PDE10A, Compound 383]
  IC50: 250 nM

## Cc1cc(NC(=O)c2ccc3cc(-c4ccccc4)nn3c2)ccn1 [Roche-Dataset for PDE10A, Compound 384]
  IC50: 35 nM

## O=C(Nc1ccn2nc(-c3ccccc3)nc2c1)c1cncc(Cl)c1 [Roche-Dataset for PDE10A, Compound 385]
  IC50: 71 nM

## COCc1ccc(Nc2cncnc2)c(C(=O)Nc2ccnn2-c2ccccn2)n1 [Roche-Dataset for PDE10A, Compound 386]
  IC50: 1.47 nM

## COC[C@H]1CCCN1c1nc(/C=C/c2nc3c(C)ncc(C)n3n2)n(C)n1 [Roche-Dataset for PDE10A, Compound 388]
  IC50: 5.53 nM

## COCc1cc(C(=O)Nc2ccn3nc(-c4ccccc4)nc3c2)n(C)n1 [Roche-Dataset for PDE10A, Compound 390]
  IC50: 87 nM

## CNC(=O)c1cc2[nH]c(-c3ccccc3)nc2cc1NC(=O)c1cc(C)n(C)n1 [Roche-Dataset for PDE10A, Compound 391]
  IC50: 197 nM

## Cc1ncc(C)n2nc(CCc3nc(N4CC[C@@H](C)[C@H]4C)nn3C)nc12 [Roche-Dataset for PDE10A, Compound 392]
  IC50: 43 nM

## Cc1c(Cl)ccc2nc(/C=C/c3nc(N4CCCC4)n(C)n3)nn12 [Roche-Dataset for PDE10A, Compound 393]
  IC50: 4.58 nM

## Cn1ncc(C(=O)O)c1C(=O)Nc1ccn2nc(-c3ccnc(F)c3)nc2c1 [Roche-Dataset for PDE10A, Compound 394]
  IC50: 570 nM

## Cc1[nH]c(-c2ccncc2)nc1CCN1C(=O)c2ccccc2C1=O [Roche-Dataset for PDE10A, Compound 395]
  IC50: 17400 nM

## Cc1nn(C)c2nc(OCc3nc(-c4ccccc4)cn3C)ncc12 [Roche-Dataset for PDE10A, Compound 396]
  IC50: 107 nM

## Cn1ncc(C(=O)N2CCC2)c1C(=O)Nc1ccc2sc(N3CCOCC3)nc2c1 [Roche-Dataset for PDE10A, Compound 397]
  IC50: 1.86 nM

## O=C(Nc1cc(Cl)ncc1Br)c1ccc2cc(-c3ccccc3)nn2c1 [Roche-Dataset for PDE10A, Compound 399]
  IC50: 354 nM

## Cc1ncc(C)n2nc(CCc3ncn(-c4ccccc4)n3)nc12 [Roche-Dataset for PDE10A, Compound 400]
  IC50: 82 nM

## Cn1ncc(C(N)=O)c1C(=O)Nc1ccn2nc(-c3ccccc3)nc2c1 [Roche-Dataset for PDE10A, Compound 401]
  IC50: 16 nM

## Cn1ncc(C(=O)N2CCCC2)c1C(=O)Nc1ccn2nc(N3CCOCC3)nc2c1 [Roche-Dataset for PDE10A, Compound 402]
  IC50: 3.25 nM

## Cn1cc(-c2ccccc2)nc1COc1nc2ccccc2nc1N1CCCC1 [Roche-Dataset for PDE10A, Compound 403]
  IC50: 7.71 nM

## CN(C)C(=O)c1cc(NC(=O)c2nc(C3CC3)ccc2Nc2cncnc2)n(C)n1 [Roche-Dataset for PDE10A, Compound 404]
  IC50: 444 nM

## Cc1c(Br)cn2nc(/C=C/c3nc(N4CCCC4)nn3C)nc2c1C [Roche-Dataset for PDE10A, Compound 406]
  IC50: 12 nM

## Cn1nc(N2CCCC2)nc1CCc1nc2c(F)cc(F)cn2n1 [Roche-Dataset for PDE10A, Compound 407]
  IC50: 628 nM

## Cn1ncc(C(=O)N2CCC2)c1C(=O)N[C@@H]1CCn2cc(-c3ccccc3Cl)nc2C1 [Roche-Dataset for PDE10A, Compound 408]
  IC50: 2.22 nM

## CN(C)C(=O)c1nn(C)cc1C(=O)Nc1ccn2cc(-c3ccccc3)nc2n1 [Roche-Dataset for PDE10A, Compound 409]
  IC50: 63 nM

## Cn1ncc(S(C)(=O)=O)c1C(=O)Nc1ccc2cc(-c3ccccc3)nn2c1 [Roche-Dataset for PDE10A, Compound 410]
  IC50: 179 nM

## COc1nc(OCc2nc(-c3ccccc3)cn2C)nc2ccccc12 [Roche-Dataset for PDE10A, Compound 411]
  IC50: 61 nM

## Cn1ncc(C(=O)N2CCC2)c1C(=O)Nc1ccc2nc(N3CCOCC3)nn2c1 [Roche-Dataset for PDE10A, Compound 412]
  IC50: 16 nM

## O=C(Nc1ccnc(Cl)c1)c1cn(-c2ccc3ccccc3n2)cn1 [Roche-Dataset for PDE10A, Compound 414]
  IC50: 302 nM

## Cn1ncc(C(=O)N2CCOCC2)c1C(=O)Nc1ccc2nc(N3CCCC3)nn2c1 [Roche-Dataset for PDE10A, Compound 415]
  IC50: 2.45 nM

## Cn1cc(S(C)(=O)=O)c(C(=O)Nc2ccc3cc(-c4ccccc4)nn3c2)n1 [Roche-Dataset for PDE10A, Compound 416]
  IC50: 88 nM

## CN(c1nc2cc(NC(=O)c3c(C(=O)N4CCOCC4)cnn3C)ccn2n1)C1CC1 [Roche-Dataset for PDE10A, Compound 418]
  IC50: 2.62 nM

## O=C(Nc1cc(Cl)ncn1)c1ccc2cc(-c3ccccc3)nn2c1 [Roche-Dataset for PDE10A, Compound 419]
  IC50: 249 nM

## O=C(Nc1ccn2nc(-c3ccccc3)nc2c1)c1onc2ccccc12 [Roche-Dataset for PDE10A, Compound 420]
  IC50: 194 nM

## CN(C)C(=O)c1cnn(C)c1C(=O)Nc1ccn2nc(-c3ccnc(S(C)(=O)=O)c3)nc2c1 [Roche-Dataset for PDE10A, Compound 421]
  IC50: 8.81 nM

## Cn1ncc(C(=O)N2CCC2)c1C(=O)Nc1cc2nc(N3CCOCC3)nn2cn1 [Roche-Dataset for PDE10A, Compound 422]
  IC50: 4.83 nM

## O=C(Nc1ccc2[nH]c(-c3ccccc3)nc2c1)c1nc(C2CC2)ccc1Nc1cncnc1 [Roche-Dataset for PDE10A, Compound 423]
  IC50: 0.24 nM

## CCc1nc(C)c(C(=O)Nc2cc3nc(-c4ccccc4)[nH]c3cc2C(=O)O)o1 [Roche-Dataset for PDE10A, Compound 424]
  IC50: 1340 nM
